Experiments:
[1] = tested on: 229E human corona virus (hCoV); assay: 229E live virus assay (MRC-5 cells, CPE, ATPlite readout); format: cell-based, hCoV-229E; details: Human coronavirus 229E, MRC5, 144 h; hCoV-229E in MRC-5 cells, MOI 0.05, 6 days at 34° C., ATPlite, run in duplicate; read-out: 229E EC50
[2] = target: SARS-CoV-2 3CL-protease (Severe acute respiratory syndrome coronavirus 2, UniProt P0DTD1); assay: SARS-CoV-2 3C-Like (3CL) Protease Fluorescence Assay (FRET); format: biochemical; details: SARS-CoV-2 3CL-protease 10 nM, test compounds 0-10 μM, duplicate, read-out: IC50

SMILES	EC50 [1]	IC50 [2]
Cc1cccc(C)c1C(=O)N[C@@H](C)C(=O)N(C)[C@@H](CC(C)C)C(=O)N1C[C@]2(C[C@H]1C#N)C(=O)Nc1ccccc12 [Example 148]	< 100 nM	< 100 nM
CC(C)C[C@@H](C(=O)N1C[C@]2(C[C@H]1C#N)C(=O)Nc1ccccc12)N(C)C(=O)[C@H](C)NC(=O)c1ccc(-c2ccc(F)cc2)cc1F [Example 149]	< 100 nM	< 100 nM
CC(C)C[C@@H](C(=O)N1C[C@]2(C[C@H]1C#N)C(=O)Nc1ccccc12)N(C)C(=O)[C@H](C)NC(=O)c1ccccc1-c1ccc(C(F)(F)F)cc1 [Example 150]	100 to 1000 nM	< 100 nM
CC(C)C[C@@H](C(=O)N1C[C@]2(C[C@H]1C#N)C(=O)Nc1ccccc12)N(C)C(=O)[C@H](C)NC(=O)c1ccc(F)c(-c2ccc(F)cc2)c1 [Example 151]	100 to 1000 nM	< 100 nM
C[C@@H](C(=O)N(C)[C@@H](CC(C)(C)C)C(=O)N1C[C@]2(C[C@H]1C#N)C(=O)Nc1ccccc12)N1CCCC1=O [Example 152]	100 to 1000 nM	100 to 1000 nM
C[C@H](NC(=O)c1ccc(OC(F)(F)F)cc1)C(=O)N(C)[C@@H](CC(C)(C)C)C(=O)N1C[C@]2(C[C@H]1C#N)C(=O)Nc1ccccc12 [Example 153]	< 100 nM	< 100 nM
C[C@H](NC(=O)c1ccc(F)cc1F)C(=O)N(C)[C@@H](CC(C)(C)C)C(=O)N1C[C@]2(C[C@H]1C#N)C(=O)Nc1ccccc12 [Example 154]	< 100 nM	< 100 nM
C[C@H](NC(=O)c1ccc(F)c(Cl)c1)C(=O)N(C)[C@@H](CC(C)(C)C)C(=O)N1C[C@]2(C[C@H]1C#N)C(=O)Nc1ccccc12 [Example 155]	< 100 nM	< 100 nM
C[C@H](NC(=O)c1ccc(F)c(F)c1)C(=O)N(C)[C@@H](CC(C)(C)C)C(=O)N1C[C@]2(C[C@H]1C#N)C(=O)Nc1ccccc12 [Example 156]	< 100 nM	< 100 nM
C[C@@H](C(=O)N(C)[C@@H](CC(C)(C)C)C(=O)N1C[C@]2(C[C@H]1C#N)C(=O)Nc1ccccc12)n1cc(C2CC2)nn1 [Example 157]	< 100 nM	< 100 nM
CC(C)C[C@@H](C(=O)N1C[C@]2(C[C@H]1C#N)C(=O)Nc1ccccc12)N(C)C(=O)[C@@H]1CC[C@@H](c2ccccc2)N1 [Example 158]	< 100 nM	< 100 nM
CC(C)C[C@@H](C(=O)N1C[C@]2(C[C@H]1C#N)C(=O)Nc1ccccc12)N(C)C(=O)[C@@H]1CC[C@H](c2ccccc2)N1 [Example 159]	100 to 1000 nM	< 100 nM
CC(C)C[C@@H](C(=O)N1C[C@]2(C[C@H]1C#N)C(=O)Nc1ccccc12)N(C)C(=O)[C@@H]1CCCN1C [Example 160]	< 100 nM	< 100 nM
CC(C)C[C@@H](C(=O)N1C[C@]2(C[C@H]1C#N)C(=O)Nc1ccccc12)N(C)C(=O)[C@@H]1CCCN1C(C)C [Example 161]	< 100 nM	< 100 nM
CC(C)C[C@@H](C(=O)N1C[C@]2(C[C@H]1C#N)C(=O)Nc1ccccc12)N(C)C(=O)[C@@H]1CC[C@@H](c2ccccc2)N1C(C)C [Example 162]	< 100 nM	< 100 nM
Cc1ncc(C(=O)N[C@@H](C)C(=O)N(C)[C@@H](CC(C)C)C(=O)N2C[C@]3(C[C@H]2C#N)C(=O)Nc2ccccc23)s1 [Example 163]	< 100 nM	< 100 nM
CC(C)C[C@@H](C(=O)N1C[C@]2(C[C@H]1C#N)C(=O)Nc1ccccc12)N(C)C(=O)[C@H](C)NC(=O)c1ccc(F)cn1 [Example 164]	< 100 nM	< 100 nM
CC(C)C[C@@H](C(=O)N1C[C@]2(C[C@H]1C#N)C(=O)Nc1ccccc12)N(C)C(=O)[C@H](C)NC(=O)c1ccc(F)c(F)c1 [Example 165]	< 100 nM	< 100 nM
Cc1cc(C(=O)N[C@@H](C)C(=O)N(C)[C@@H](CC(C)C)C(=O)N2C[C@]3(C[C@H]2C#N)C(=O)Nc2ccccc23)no1 [Example 166]	< 100 nM	< 100 nM
CC(C)C[C@H]1C(=O)N2C[C@]3(C[C@H]2C#N)C(=O)Nc2ccc(cc23)CCCCC[C@H](NC(=O)OC(C)(C)C)C(=O)N1C [Example 373]	100 to 1000 nM	< 100 nM
